Test results published in article PMC7180948, “New Insights into 4-Anilinoquinazolines as Inhibitors of Cardiac Troponin I–Interacting Kinase (TNNi3K)” (Molecules, 2020).

Target: T1, cardiac troponin I–interacting kinase (TNNi3K) (Homo sapiens, UniProt Q59H18)
T1 sequence (Q59H18 1-835): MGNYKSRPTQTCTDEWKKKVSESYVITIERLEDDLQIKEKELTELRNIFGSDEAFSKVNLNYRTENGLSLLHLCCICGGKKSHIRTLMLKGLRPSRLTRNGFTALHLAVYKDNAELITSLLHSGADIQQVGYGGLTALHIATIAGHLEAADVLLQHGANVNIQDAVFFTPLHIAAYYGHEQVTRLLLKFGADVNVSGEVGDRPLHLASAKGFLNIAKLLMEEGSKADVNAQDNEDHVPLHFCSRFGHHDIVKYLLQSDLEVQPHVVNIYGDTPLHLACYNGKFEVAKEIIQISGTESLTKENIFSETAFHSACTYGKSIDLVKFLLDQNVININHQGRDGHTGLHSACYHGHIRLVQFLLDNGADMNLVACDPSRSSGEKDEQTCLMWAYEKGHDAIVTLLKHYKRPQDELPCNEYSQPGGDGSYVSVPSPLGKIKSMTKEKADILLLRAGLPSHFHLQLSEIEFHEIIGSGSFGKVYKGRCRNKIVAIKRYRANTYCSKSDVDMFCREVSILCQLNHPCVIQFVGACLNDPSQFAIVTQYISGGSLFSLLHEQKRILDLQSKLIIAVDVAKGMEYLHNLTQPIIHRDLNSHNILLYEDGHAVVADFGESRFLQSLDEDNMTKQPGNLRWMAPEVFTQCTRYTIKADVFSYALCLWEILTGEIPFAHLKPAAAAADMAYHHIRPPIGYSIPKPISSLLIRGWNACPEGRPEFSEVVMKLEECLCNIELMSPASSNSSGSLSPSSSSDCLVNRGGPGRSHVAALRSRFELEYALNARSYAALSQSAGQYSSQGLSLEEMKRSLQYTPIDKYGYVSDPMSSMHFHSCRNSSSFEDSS
Assay: TNNi3K binding assay (Kd, n = […])

Going from `CNS(=O)(=O)c1cccc(Nc2ncnc3cc(OC)c(OC)cc23)c1` [compound 2, 3-((6,7-dimethoxyquinazolin-4-yl)amino)-N-methylbenzenesulfonamide] to `COc1cc2ncnc(Nc3ccccc3N(C)C)c2cc1OC` [compound 20, N^1-(6,7-dimethoxyquinazolin-4-yl)-N^2,N^2-dimethylbenzene-1,2-diamine], the Kd rises from 120 nM to 6200 nM (52-fold).

Going from `CNS(=O)(=O)c1ccc(N(C)C)c(Nc2ncnc3ccc(OC)cc23)c1` [compound 16, 4-(dimethylamino)-3-((6-methoxyquinazolin-4-yl)amino)-N-methylbenzenesulfonamide] to `CNS(=O)(=O)c1ccc(N(C)C)c(Nc2ncnc3cc(OC)ccc23)c1` [compound 17, 4-(dimethylamino)-3-((7-methoxyquinazolin-4-yl)amino)-N-methylbenzenesulfonamide], the Kd falls from 90 nM to 11 nM (8.2-fold). The second binds more tightly here.
